Patent US7271192B2, “Substituted 2-pyrrolidine-2-yl-1H-indole compounds” (Gruenenthal GmbH, priority 2001, dated 2007)

What follows are compounds tested against T1, nNOS (Rattus norvegicus, UniProt P29476) (assay: NOS assay (HTS NOS assay, radioactive arginine, filter plate)). Conditions: enzyme preparation from rat cerebelli.
T1 construct: Rat cerebelli were used as the starting tissue; from tissue; host or cells: rat cerebellum (20,000 g supernatant of homogenate)
Type: biochemical
Description: This assay allows the determination of the percentage inhibition of NO synthase by an active compound by means of measurement of the NOS activity under the action of the active compound. In this procedure, NO synthase is mixed together with radioactively labelled arginine and the active compound under suitable conditions. After discontinuation of the NO formation reaction at a given point in time, the amount of unreacted arginine is determined directly or indirectly. Comparison of this amount with the amount of arginine which remains in a sample from the mixture of NOS and arginine without the addition of active compound and under otherwise identical conditions gives the % inhibition of NO synthase by the active compound tested. This assay can be carried out as follows:
incubation of NO synthase with labelled arginine as the substrate in a reaction vessel,
separation of the labelled arginine from the labelled citrulline possibly formed as the product of the enzymatic reaction at a point in time at which the concentration of citrulline increases,
measurement of the amount of arginine separated off in the particular case.
The separation is carried out via a filter plate membrane.
This NOS assay is particularly suitable for a “high throughput screening” (HTS) on microtitre plates (MTP).
In this HTS NOS assay, radioactive arginine is used as the substrate. The assay volume can be chosen in the range between 25 μl and 250 μl, depending on the nature of the microtitre plate (MTP). Cofactors and coenzymes are added, depending on the enzyme source used. The incubation of the batches in this microtitre plate (assay MTP) according to step (a) is carried out at room temperature and is between 5 and 60 minutes, depending on the enzyme activity (units) used. At the end of the incubation (step (a)), the plate is placed in a cell harvester equipped with an MTP which has a cation exchange membrane as the filter base (filter MTP). All the batches of the assay MTP are transferred into this filter MTP and filtered with suction over a cation exchanger filter plate, a paper filter loaded with phosphate groups. The filter MTP is then washed with buffer or water. The arginine substrate which remains is bonded to the cation exchanger with the aid of this procedure, while the radioactive citrulline formed enzymatically is washed out quantitatively. After drying of the filter MTP and addition of scintillation liquid, the arginine bonded can be counted on a scintillation counter. A non-inhibited NOS reaction is reflected in a low radioactivity. An inhibited enzyme reaction means that the radioactive arginine has not been reacted, i.e. there is a high radioactivity on the filter.
Arginine, L-[2,3,4-^3H]-monohydrochloride; order no. NET-1123, NEN • CaCl2, anhydrous; order no. 2388.1000; Merck KGaA • 1,4-dithiothreitol (DTT), order no. 708984; ROCHE • Na2EDTA-dihydrate; order no. 03680; FLUKA • HEPES, order no. H-3375; SIGMA • NADPH, tetrasodium salt; order no. 1585363; ROCHE • TRIS; ORDER no. 93349; FLUKA
Enzyme preparation buffer: 50 mM Tris-HCl with 1 mM EDTA: The pH of the buffer was adjusted to 7.4 at 4° C.
Incubation buffer (medium): 50 mM HEPES with 1 mM EDTA; 1.25 mM CaCl2 and 1 mM dithiothreitol.
The pH of the buffer was adjusted to 7.4 at 25° C.
Rat cerebelli were used as the starting tissue. The animals were narcotized and sacrificed, the brain tissue, the cerebellum, was removed, 1 ml of enzyme preparation buffer was added (4° C.) per rat cerebellum and the tissue was broken down with a Polytron homogeniser for 1 min at 6,000 rpm. Centrifugation at 4° C. for 15 min at 20,000 g and subsequent decanting of the supernatant and freezing in portions at −80° C. (precipitate discarded) then took place.
Compounds according to the invention were tested for nNOS inhibition in the NOS assay described above.

In order of rising inhibition at 10 µM:
1. CCOC(=O)CCC(=O)N1CCCC1c1c(-c2ccccc2)c2cc(Cl)ccc2n1CCN(CC)CC (centres unmarked) [Example 12, 4-{2-[5-Chloro-1-(2-diethylamino-ethyl)-3-phenyl-1H-indol-2-yl]-pyrrolidin-1-yl)-4-oxo-butyric acid ethyl ester]  34%
2. CCCCCC(=O)N1CCCC1c1c(-c2ccccc2)c2cc(Cl)ccc2n1CCN(CC)CC (centres unmarked) [Example 20, 1-{2-[5-Chloro-1-(2-diethylamino-ethyl)-3-phenyl-1H-indol-2-yl]-pyrrolidin-1-yl}-hexan-1-one]  35%
3. Cn1c(C2CCCN2C(=O)C2CC2)c(-c2ccccc2)c2cc(Cl)ccc21 (centres unmarked) [Example 48, [2-(5-Chloro-1-methyl-3-phenyl-1H-indol-2-yl)-pyrrolidin-1-yl]-cyclopropyl-methanone]  35%
4. CCN(CC)CCn1c(C2CCCN2C(=O)c2ccc(Cl)nc2)c(-c2ccccc2)c2cc(Cl)ccc21 (centres unmarked) [Example 17, {2-[5-Chloro-1-(2-diethylamino-ethyl)-3-phenyl-1H-indol-2-yl]-pyrrolidin-1-yl)-(6-chloro-pyridin-3-yl)-methanone]  36%
5. CCN(CC)CCn1c(C2CCCN2C(=O)C2CCC2)c(-c2ccccc2)c2cc(Cl)ccc21 (centres unmarked) [Example 15, {2-[5-Chloro-1-(2-diethylamino-ethyl)-3-phenyl-1H-indol-2-yl]-pyrrolidin-1-yl}-cyclobutyl-methanone]  38%
6. COCCOCC(=O)N1CCCC1c1c(-c2ccccc2)c2cc(Cl)ccc2n1C (centres unmarked) [Example 35, 1-[2-(5-Chloro-1-methyl-3-phenyl-1H-indol-2-yl)-pyrrolidin-1-yl]-2-(2-methoxy-ethoxy)-ethanone]  41%
7. CCOc1ccc(C(=O)N2CCCC2c2c(-c3ccccc3)c3cc(Cl)ccc3n2CCN(CC)CC)cc1 (centres unmarked) [Example 28, {2-[5-Chloro-1-(2-diethylamino-ethyl)-3-phenyl-1H-indol-2-yl]-pyrrolidin-1-yl}-(4-ethoxy-phenyl)-methanone]  41%
8. CCN(CC)CCn1c(C2CCCN2C(=O)c2ccco2)c(-c2ccccc2)c2cc(Cl)ccc21 (centres unmarked) [Example 9, {2-[5-Chloro-1-(2-diethylamino-ethyl)-3-phenyl-1H-indol-2-yl]-pyrrolidin-1-yl}-furan-2-yl-methanone]  45%
9. CCN(CC)CCn1c(C2CCCN2C(=O)c2ccc(F)cc2)c(-c2ccccc2)c2cc(Cl)ccc21 (centres unmarked) [Example 13, {2-[5-Chloro-1-(2-diethylamino-ethyl)-3-phenyl-1H-indol-2-yl]-pyrrolidin-1-yl}-(4-fluoro-phenyl)-methanone]  47%
10. CCN(CC)CCn1c(C2CCCN2C(=O)c2cc(OC)cc(OC)c2)c(-c2ccccc2)c2cc(Cl)ccc21 (centres unmarked) [Example 26, {2-[5-Chloro-1-(2-diethylamino-ethyl)-3-phenyl-1H-indol-2-yl]-pyrrolidin-1-yl}-(3,5-dimethoxy-phenyl)-methanone]  51%
11. CC#CCn1c(C2CCCN2C(=O)COC)c(-c2ccccc2)c2cc(Cl)ccc21 (centres unmarked) [Example 73, 1-[2-(1-But-2-ynyl-5-chloro-3-phenyl-1H-indol-2-yl)-pyrrolidin-1-yl]-2-methoxy-ethanone]  54%
